Patent US20040024024A1, “Aromatic sulfone hydroxamates and their use as protease inhibitors” (priority 2001, published 2004)

What was measured:
Human recombinant MMP-13 = target: T1, Human recombinant MMP-13 (Homo sapiens, UniProt P45452); test: In vitro MMP inhibition, IC50 determination (fluorogenic substrate I); assay type: biochemical; settings: value outside parenthesis
T1 construct: made in house; host or cells: baculovirus / insect cells
Procedure, shortened: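 Fluorescence at 415 nm (excitation 328 nm) reports Gly-Leu cleavage of 4 μM quenched methoxycoumarin peptide substrate I. Human recombinant MMP-13, activated by trypsin or APMA, was incubated at room temperature with varied inhibitor concentrations in pH 7.5 Tris/NaCl/CaCl2 buffer; IC50 derived from reduced fluorescence.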

Human recombinant MMP-2 = target: T2, Human recombinant MMP-2 (Homo sapiens, UniProt P08253); test: as above; assay type: biochemical; settings: value outside parenthesis
T2 construct: made in house; host or cells: MMP-2-transfected p2AHT2 cells
T2 sequence (P08253 110-660): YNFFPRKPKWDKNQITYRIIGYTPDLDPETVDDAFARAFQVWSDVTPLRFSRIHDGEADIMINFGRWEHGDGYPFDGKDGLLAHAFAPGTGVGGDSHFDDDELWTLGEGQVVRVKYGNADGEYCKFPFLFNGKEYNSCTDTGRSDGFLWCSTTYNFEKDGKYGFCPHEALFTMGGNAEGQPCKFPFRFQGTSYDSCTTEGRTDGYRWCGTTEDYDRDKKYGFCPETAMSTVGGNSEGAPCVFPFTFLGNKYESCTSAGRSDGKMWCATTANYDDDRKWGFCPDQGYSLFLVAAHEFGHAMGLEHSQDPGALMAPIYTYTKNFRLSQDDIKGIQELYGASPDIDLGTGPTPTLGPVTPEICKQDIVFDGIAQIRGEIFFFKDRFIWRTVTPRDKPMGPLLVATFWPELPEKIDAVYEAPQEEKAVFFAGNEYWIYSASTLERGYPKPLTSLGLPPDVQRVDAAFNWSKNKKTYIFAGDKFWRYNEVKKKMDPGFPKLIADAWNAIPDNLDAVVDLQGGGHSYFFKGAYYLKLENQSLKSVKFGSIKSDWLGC
Procedure, shortened: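 APMA- or trypsin-activated recombinant MMP-2 was incubated at room temperature with serial inhibitor dilutions in Tris buffer pH 7.5 (100 mM NaCl, 10 mM CaCl2, 0.05% Brij), with DMSO from 1% stocks, and 4 μM substrate I. Cleavage was read by fluorescence at 328/415 nm; IC50 was taken from the loss of fluorescence versus inhibitor concentration.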

SMILES | IC50 (Human recombinant MMP-13) [nM] | IC50 (Human recombinant MMP-2) [nM]
O=C(NO)C1(S(=O)(=O)c2ccc(OCCCc3cccc(-c4ccc(Cl)c(Cl)c4)c3)cc2)CCOCC1 [Example 169] | 70.7 | 4360
COCCN1CCC(C(=O)NO)(S(=O)(=O)c2ccc(OCCCc3nc(-c4ccc(CC(C)C)cc4C)no3)cc2)CC1 [Example 128] | 23.7 | 659
CC(C)c1ccc(-c2cccc(CCOc3ccc(S(=O)(=O)C4(C(=O)NO)CCOCC4)cc3)c2)cc1 [Example 109] | 152 | 5410
O=C(NO)C1(S(=O)(=O)c2ccc(OCCCc3cccc(-c4cc(Cl)cc(Cl)c4)c3)cc2)CCOCC1 [Example 172] | 377 | 5160
COCCN1CCC(C(=O)NO)(S(=O)(=O)c2ccc(OCCCc3nc(-c4ccc(C5(c6ccccc6)CC5)cc4)no3)cc2)CC1 [Example 185] | 12.4 | 84.7
Cc1cc(-c2cccc(CCCOc3ccc(S(=O)(=O)C4(C(=O)NO)CCOCC4)cc3)c2)ccc1Cl [Example 166] | 136 | 3080
O=C(NO)C1(S(=O)(=O)c2ccc(OCCc3cccc(-c4cccc(F)c4)c3)cc2)CCOCC1 [Example 111] | 2 | 559
Cc1ccccc1-c1cccc(CCOc2ccc(S(=O)(=O)C3(C(=O)NO)CCOCC3)cc2)c1 [Example 116] | 11.2 | 1050
O=C(NO)C1(S(=O)(=O)c2ccc(OCCCc3nc(-c4ccc(OC(F)(F)F)cc4)no3)cc2)CCN(Cc2ccccc2)CC1 [Example 93] | 15.5 | 747
O=C(NO)C1(S(=O)(=O)c2ccc(OCCc3cccc(-c4ccc(OC(F)(F)F)cc4)c3)cc2)CCOCC1 [Example 112] | 37.9 | 66.4
COc1ccc(-c2cccc(CCOc3ccc(S(=O)(=O)C4(C(=O)NO)CCOCC4)cc3)c2)cc1C [Example 119] | 18.3 | 1190
O=C(NO)C1(S(=O)(=O)c2ccc(OCCCc3cccc(-c4ccc(Cl)cc4Cl)c3)cc2)CCOCC1 [Example 171] | 62.8 | 2290
O=C(NO)C1(S(=O)(=O)c2ccc(OCCc3cccc(-c4ccc(Cl)cc4Cl)c3)cc2)CCOCC1 [Example 124] | 21.9 | 2150
NC(=O)c1cccc(-c2noc(CCCOc3ccc(S(=O)(=O)C4(C(=O)NO)CCN(C5CC5)CC4)cc3)n2)c1 [Example 129] | 1.9 | 41.4
CCCCc1ccc(-c2noc(CCCOc3ccc(S(=O)(=O)C4(C(=O)NO)CCOCC4)cc3)n2)c(C)c1 [Example 183] | 21 | 708
Cc1cc(-c2cccc(CCCOc3ccc(S(=O)(=O)C4(C(=O)NO)CCOCC4)cc3)c2)ccc1F [Example 168] | 34.3 | 3430

Further molecules by falling IC50 (Human recombinant MMP-13), results first:

IC50 (Human recombinant MMP-13) [nM] | IC50 (Human recombinant MMP-2) [nM] | SMILES
349 | 3260 | O=C(NO)C1(S(=O)(=O)c2ccc(OCCc3cccc(-c4cc(Cl)cc(Cl)c4)c3)cc2)CCOCC1 [Example 126]
29.8 | 1860 | Cc1cc(-c2cccc(CCOc3ccc(S(=O)(=O)C4(C(=O)NO)CCOCC4)cc3)c2)ccc1Cl [Example 118]
21.6 | 2470 | O=C(NO)C1(S(=O)(=O)c2ccc(OCCc3cccc(-c4ccc(Cl)c(Cl)c4)c3)cc2)CCOCC1 [Example 121]
16 | 1740 | Cc1ccc(-c2cccc(CCOc3ccc(S(=O)(=O)C4(C(=O)NO)CCOCC4)cc3)c2)cc1C [Example 117]
7.6 | 1200 | O=C(NO)C1(S(=O)(=O)c2ccc(OCCc3cccc(-c4cc(F)cc(F)c4)c3)cc2)CCOCC1 [Example 110]
7.4 | 133 | COCCN1CCC(C(=O)NO)(S(=O)(=O)c2ccc(OCCCc3nc(-c4cccc5ccccc45)no3)cc2)CC1 [Example 199]
7 | 20.4 | O=C(NO)C1(S(=O)(=O)c2ccc(OCCCc3nc(C4CCCCC4)no3)cc2)CCN(C2CC2)CC1 [Example 137]
5.2 | 1010 | O=C(NO)C1(S(=O)(=O)c2ccc(OCCc3cccc(-c4ccccc4Cl)c3)cc2)CCOCC1 [Example 114]
3.3 | 1610 | O=C(NO)C1(S(=O)(=O)c2ccc(OCCCc3cccc(-c4ccc(F)c(F)c4)c3)cc2)CCOCC1 [Example 170]
2.9 | 24.3 | COCCN1CCC(C(=O)NO)(S(=O)(=O)c2ccc(OCCCc3nc(-c4ccc(Br)cc4C)no3)cc2)CC1 [Example 135]
